Experimental data published in patent publication US20200239561A1, “NODAL REGULATION OF CANCER DRUG RESISTANCE GENE” (TaiRx Inc., priority 2019, published 2020).

Key:
[1] = tested on: Nodal protein; test: Western blot of Nodal protein (ProNodal) in acute lymphoblastic leukemia cell line REH; type: cell-based; conditions: REH cells, 72 hr treatment
Excerpt: Treatment of the cells for 72 hr with CVM-1125 reduced Nodal protein expression by 38%, while under the same treatment regimen the drug Ara-c reduced Nodal protein expression by 51%, Ws65 reduced Nodal protein by 90%, a combination of CVM-1125 plus WS65 reduced Nodal protein by 75% and Ara-c plus WS65 reduced Nodal protein by 69%.

[2] = tested on: Nodal; test: Nodal in experimental TNBC models after doxorubicin; conditions: three experimental TNBC models expressing high levels of Nodal
[3] = tested on: ABCA1 protein; test: Western blot of ABCA1 protein expression in SK-MEL28 melanoma cells; type: cell-based, human; conditions: 72 hours treatment
Description: (§1) Human metastatic melanoma cell lines C8161, SK-MEL28 and A375SM-L1 and melanocytes were treated with anti-Nodal or anti-ABCA1 antibodies followed by secondary fluorescent antibodies. (A) Cells were viewed using a Zeiss Axioskop 2 microscope and photomicrographs taken comparing immunofluorescence staining of the melanoma cells versus melanocytes (negative control) and cells treated with secondary antibody only (antibody control; magnification 63×). All three aggressive melanoma cell lines express both Nodal and ABCA1 proteins. (B) Furthermore, whole cell protein lysates were prepared from the C8161, SK-MEL28 and A375SM-L1 cells and Western blot analysis verified the expression of both Nodal and ABCA1 proteins at their appropriate molecular weight equivalence. β-Actin protein was used to determine the equal loading of total protein per sample per lane on the Western blot.
(§2) (A) After 72 hr treatment with WS65, an anti-Nodal inhibitory antibody, there is a 94% reduction in Nodal protein expression and 55% reduction in the ABCA1 protein expression. […] Similar treatment with WS65 results in a 55% decrease in Nodal protein expression and 38% decrease in ABCA1 protein expression while treatment with both CVM-1125 and WS65 for 72 hr appears to synergistically reduce the expression of Nodal protein by 81% and ABCA1 protein by 99%.

[4] = tested on: Nodal protein; test: Western blot of Nodal protein expression in SK-MEL28 melanoma cells; type: cell-based, human; conditions: 72 hours treatment
Description: as §1, §2

Structure (SMILES) | reduced Nodal protein expression [1] | effect on the Nodal target [2] | decrease in ABCA1 protein expression [3] | decrease in Nodal protein expression [4]
Nc1ccn([C@@H]2O[C@H](CO)[C@@H](O)[C@@H]2O)c(=O)n1 [Ara-c, reference compound] | 51% | – | – | –
COc1cccc2c1C(=O)c1c(O)c3c(c(O)c1C2=O)C[C@@](O)(C(=O)CO)C[C@@H]3O[C@H]1C[C@H](N)[C@H](O)[C@H](C)O1 [doxorubicin] | – | did not effectively diminish | – | –
COc1ccc2[nH]c(-c3cccc(F)c3)cc(=O)c2c1O [CVM-1125] | 38% | – | 14% | 19%
